# In US9090633B2, “Substituted 4-(arylamino) selenophenopyrimidine compounds and methods of use thereof” (KASINA LAILA INNOVA PHARMACEUTICALS PRIVATE LIMITED, priority 2010, dated 2013):
# Experiments:
# [1] = test system: human lung carcinoma A549 cells; assay: MTT based cell proliferation assay, A549; conditions: for IC50: A549, 72 h, read-out: Cell proliferation inhibition in A549 (Lung carcinoma), IC50
# Procedure: (§1) MTT [3-(4,5-dimethylthiazol-2-yl)-2,5-diphenyltetrazolium bromide incorporation based cell proliferation assay was performed using standard procedure. […] The assay was carried out according to the instructions provided by the vendor. […] Vehicle control culture wells received only a maximum of 0.5% DMSO. Thereafter, 0.5 mg/ml of MTT reagent was added to each well and the microplate was incubated further for 4 h at 37° C. in presence of 5% CO2. Finally, the cells were solubilized by adding solubilizing solution and allowed to incubate at 37° C. overnight. After complete solubilization of the formazan crystals the absorbance was read at 540 nm in a microplate reader (BioRad, USA).
# (§2) The evaluation of cell proliferation inhibitory activities of the compounds was done in two phases—(1) Screening, and (2) half-maximal inhibitory concentration (IC50) determination. In the screening phase, the cells were treated with different concentrations.
# [2] = test system: human prostate DU145 cells; assay: MTT based cell proliferation assay, DU145; conditions: for IC50: DU-145, 72 h, read-out: Cell proliferation inhibition in DU145 (Prostate carcinoma), IC50
# Procedure: as §1, §2
# [3] = test system: human colorectal carcinoma HT29 cells; assay: MTT based cell proliferation assay, HT29; conditions: for IC50: HT-29, 72 h, read-out: Cell proliferation inhibition in HT29 (Colon carcinoma), IC50
# Procedure: as §1, §2
# [4] = test system: human breast carcinoma (estrogen receptor negative) MDA-MB-231 cells; assay: MTT based cell proliferation assay, MDA-MB-231
# Procedure: as §1, §2
# [5] = test system: human Hepatocellular carcinoma HepG2 cells; assay: MTT based cell proliferation assay, HepG2
# Procedure: as §1, §2
# [6] = test system: human cervical carcinoma HeLa cells; assay: MTT based cell proliferation assay, HeLa
# Procedure: as §1, §2
# [7] = Homo sapiens, A549, read-out: Cell proliferation inhibition in A549 (Lung carcinoma)
# [8] = Homo sapiens, DU-145, read-out: Cell proliferation inhibition in DU145 (Prostate carcinoma)
# [9] = Homo sapiens, HT-29, read-out: Cell proliferation inhibition in HT29 (Colon carcinoma)
molecule,measurement,setting,value
"Brc1cncc(Nc2ncnc3[se]c4c(c23)CCCC4)c1 [Compound 2, (5-bromo(3-pyridyl))-5,6,7,8-tetrahydrobenzo[1,2-b]pyrimidino[5,6-d]selenophen-4-ylamine]",inhibition at 22.421 µM,[1]; [7],20.7%
same,inhibition at 22.421 µM,[2]; [8],13.1%
same,inhibition at 22.421 µM,[3]; [9],11.1%
"Fc1ccc(Nc2ncnc3[se]c4c(c23)CCNC4)cc1Cl [Compound 18, (3-chloro-4-fluorophenyl)-5,6,7,8-tetrahydropyrimidino[5′,6′-5,4]selenopheno[2,3-c]pyridine-4-ylamine]",IC50,[1]; Homo sapiens,82.6 µM
same,IC50,[2]; Homo sapiens,42.5 µM
same,IC50,[3]; Homo sapiens,39.1 µM
"Fc1ccc(Nc2ncnc3c2[se]c2ccccc23)cc1Cl [Compound 30, benzo[d]pyrimidino[5,6-b]selenophen-4-yl(3-chloro-4-fluorophenyl)amine]",IC50,[1]; Homo sapiens,21.8 µM
same,IC50,[2]; Homo sapiens,26.8 µM
same,inhibition at 25 µM,[3]; [9],38.1%
"CS(=O)(=O)N1CCc2c([se]c3ncnc(Nc4ccc(F)c(Cl)c4)c23)C1 [Compound 19, 4[(3-chloro-4-fluorophenyl)amino]-7-(methylsulfonyl)-5,6,7,8-tetrahydro-pyrimidino[5′,4′-5,4]selenopheno[2,3-c]pyridine]",inhibition at 25 µM,[1]; [7],27.4%
same,inhibition at 25 µM,[2]; [8],29.2%
same,inhibition at 25 µM,[3]; [9],3.07%
"Clc1cc(Nc2ncnc3[se]c4c(c23)CCCC4)nc(Cl)n1 [Compound 4, (2,6-dichloropyrimidin-4-yl)-5,6,7,8-tetrahydrobenzo[1,2-b]pyrimidino[5,6-d]selenophen-4-ylamine]",IC50,[1]; Homo sapiens,42.3 µM
same,IC50,[2]; Homo sapiens,37.1 µM
same,IC50,[3]; Homo sapiens,162 µM
"Fc1ccc(Nc2ncnc3cc(-c4ccccc4)[se]c23)cc1Cl [Compound 29, (3-chloro-4-fluorophenyl)(6-phenylselenopheno[2,3-e]pyrimidin-4-yl)amine]",inhibition at 30 µM,[1]; [7],45.5%
same,inhibition at 25 µM,[2]; [8],30.8%
same,inhibition at 25 µM,[3]; [9],43.1%
"Cc1c(C(=O)O)[se]c2ncnc(Nc3ccc(F)c(Cl)c3)c12 [Compound 15, 4-[(3-chloro-4-fluorophenyl)amino]-5-methylselenopheno[2,3-d]pyrimidine-6-carboxylic acid]",inhibition at 240.539 µM,[1]; [7],25%
same,inhibition at 240.539 µM,[2]; [8],41.2%
same,inhibition at 240.539 µM,[3]; [9],18.9%
"Clc1cc(Nc2ncnc3[se]c4c(c23)CCCC4)cc(Cl)n1 [Compound 3, (2,6-dichloropyridin-4-yl)-5,6,7,8-tetrahydrobenzo[1,2-b]pyrimidino[5,6-d]selenophen-4-ylamine]",inhibition at 22.935 µM,[1]; [7],15.6%
same,inhibition at 22.935 µM,[2]; [8],18.3%
same,inhibition at 22.935 µM,[3]; [9],13.8%
"Cc1c(C(N)=O)[se]c2ncnc(Nc3ccc(F)c(Cl)c3)c12 [Compound 17, 4-[(3-chloro-4-fluorophenyl)amino]-5-methylselenopheno[2,3-d]pyrimidine-6-carboxamide]",inhibition at 25 µM,[1]; [7],21.4%
same,inhibition at 25 µM,[2]; [8],44.4%
"c1cnc(Nc2ncnc3[se]c4c(c23)CCCC4)cn1 [Compound 5, pyrazin-2-yl-5,6,7,8-tetrahydrobenzo[1,2-b]pyrimidino[5,6-d]selenophen-4-ylamine]",IC50,[2]; Homo sapiens,16.4 µM
"O=C1CCc2c([se]c3ncnc(Nc4ccc(F)c(Cl)c4)c23)C1 [Compound 26, 4-[(3-chloro-4-fluorophenyl)amino]-5,6,8-trihydrobenzo[2,1-b]pyrimidino[5,4-d]selenophen-7-one]",inhibition at 23.148 µM,[1]; [7],17.5%
same,inhibition at 23.148 µM,[2]; [8],65.1%
same,inhibition at 23.148 µM,[3]; [9],30.9%
"Clc1ccc(Nc2ncnc3[se]c4c(c23)CCNC4)cc1Cl [Compound 22, (3,4-dichlorophenyl)-5,6,7,8-tetrahydropyrimidino[5′,6′-5,4]selenopheno[2,3-c]pyridin-4-ylamine]",inhibition at 22.935 µM,[1]; [7],16.7%
same,inhibition at 22.935 µM,[2]; [8],36.6%
same,inhibition at 22.935 µM,[3]; [9],28.4%
Brc1cc(Nc2ncnc3[se]c4c(c23)CCCC4)c(Br)s1 [Compound 6],IC50,[1]; Homo sapiens,49 µM
same,IC50,[2]; Homo sapiens,42.4 µM
same,inhibition at 18.868 µM,[3]; [9],15.5%
"CC(C)(C)c1cc2ncnc(Nc3ccc(F)c(Cl)c3)c2[se]1 [Compound 28, [6-(tert-butyl)selenopheno[2,3-e]pyrimidin-4-yl](3-chloro-4-fluorophenyl)amine]",IC50,[1]; Homo sapiens,109 µM
same,IC50,[2]; Homo sapiens,82.7 µM
same,IC50,[3]; Homo sapiens,71 µM
CN(c1ccc(Cl)cc1)c1ncnc2[se]c3c(c12)CCNC3 [Compound 33],IC50,"[4]; Homo sapiens, MDA-MB-231, 72 h, read-out: Cell proliferation inhibition (IC50) in MDA-MB-231 (Breast Carcinoma)",20.4 µM
same,more potent than Gefitinib (Iressa) in inhibiting tumor cells proliferation,"[4]; MDA-MB-231, from IC50 values",122%
same,more potent than Gefitinib (Iressa) in inhibiting tumor cells proliferation,"[5]; HepG2, from IC50 values",241%
same,IC50,"[5]; Homo sapiens, HepG2, 72 h, read-out: Cell proliferation inhibition (IC50) in HepG2 (Hepatocellular Carcinoma)",10.4 µM
same,more potent than Gefitinib (Iressa) in inhibiting tumor cells proliferation,"[1]; A549, from IC50 values",101%
same,IC50,[1]; Homo sapiens,28.4 µM
same,more potent than Gefitinib (Iressa) in inhibiting tumor cells proliferation,"[2]; DU145, from IC50 values",6.8%
same,IC50,[2]; Homo sapiens,29.5 µM
same,IC50,"[6]; Homo sapiens, 72 h, read-out: Cell proliferation inhibition (IC50) in HeLa (Cervical Carcinoma)",23.1 µM
same,more potent than Gefitinib (Iressa) in inhibiting tumor cells proliferation,[6]; from IC50 values,117%
same,more potent than Gefitinib (Iressa) in inhibiting tumor cells proliferation,"[3]; HT29, from IC50 values",257.8%
same,IC50,[3]; Homo sapiens,13.1 µM
Cc1[se]c2ncnc(Nc3ccc(F)c(Cl)c3)c2c1-c1ccccc1 [Compound 16],IC50,[1]; Homo sapiens,44.1 µM
same,IC50,[2]; Homo sapiens,111 µM
same,inhibition at 66.079 µM,[3]; [9],38.6%
"C#Cc1cccc(Nc2ncnc3[se]c4c(c23)CCNC4)c1 [Compound 21, (3-ethynylphenyl)-5,6,7,8-tetrahydropyrimidino[5′,6′-5,4]selenopheno[2,3-c]pyridine-4-ylamine]",inhibition at 25.575 µM,[1]; [7],11.6%
same,inhibition at 25.575 µM,[2]; [8],12.9%
same,inhibition at 25.575 µM,[3]; [9],4.66%
Cc1c(C(=O)NCCCl)[se]c2ncnc(Nc3ccc(F)c(Cl)c3)c12 [Compound 25],inhibition at 19.92 µM,[1]; [7],0.19%
same,IC50,[2]; Homo sapiens,8.51 µM
same,IC50,[3]; Homo sapiens,9.24 µM
"CC(C)(C)c1cc(Nc2ncnc3[se]c4c(c23)CCCC4)c(C(N)=O)s1 [Compound 7, (5-tert-butyl)-3-(5,6,7,8-tetrahydrobenzo[1,2-b]pyrimidino[5,6-d]selenophen-4-ylamino)thiophene-2-carboxamide]",IC50,[3]; Homo sapiens,9.3 µM
"NS(=O)(=O)c1ccc(Nc2ncnc3[se]c4c(c23)CCCC4)cc1 [Compound 12, 4-(5,6,7,8-tetrahydrobenzo[1,2-b]pyrimidino[5,6-d]selenophen-4-ylamino)benzenesulfonamide]",inhibition at 24.449 µM,[3]; [9],15.6%
"Fc1ccc(Nc2ncnc3c2[se]c2ncccc23)cc1Cl [Compound 31, (3-chloro-4-fluorophenyl)pyrimidino[4′,5′-5,4]selenopheno[2,3-b]pyridin-4-ylamine]",inhibition at 25 µM,[1]; [7],30.2%
same,inhibition at 25 µM,[2]; [8],22%
same,inhibition at 25 µM,[3]; [9],5.21%
"CC(C)(C)c1c[se]c2ncnc(Nc3ccc(F)c(Cl)c3)c12 [Compound 13, [5-(tert-butyl)selenopheno[3,2-e]pyrimidin-4-yl](3-chloro-4-fluorophenyl)amine]",IC50,[1]; Homo sapiens,15 µM
same,IC50,[2]; Homo sapiens,41.6 µM
same,IC50,[3]; Homo sapiens,37.9 µM
"Fc1ccc(Nc2ncnc3[se]c4c(c23)CCCC4)cc1Cl [Compound 1, (3-chloro-4-fluorophenyl)-5,6,7,8-tetrahydrobenzo[1,2-b]pyrimidino[5,6-d]selenophen-4-ylamine]",IC50,[2]; Homo sapiens,8.37 µM
"COC(=O)c1cc(Nc2ncnc3[se]c4c(c23)CCNC4)c(C)s1 [Compound 23, methyl 5-methyl-4-(5,6,7,8-tetrahydropyrimidino[5′,6′-5,4]selenopheno[2,3-c]pyridin-4-ylamino)thiophene-2-carboxylate]",inhibition at 22.472 µM,[1]; [7],8.64%
same,inhibition at 22.472 µM,[2]; [8],5.08%
same,inhibition at 22.472 µM,[3]; [9],15.4%
"Brc1cccc(Nc2ncnc3[se]c4c(c23)CCNC4)c1 [Compound 20, (3-bromophenyl)-5,6,7,8-tetrahydropyrimidino[5′,6′-5,4]selenopheno[2,3-c]pyridin-4-ylamine]",inhibition at 22.421 µM,[1]; [7],0.45%
same,inhibition at 22.421 µM,[2]; [8],13.4%
same,inhibition at 22.421 µM,[3]; [9],8.96%
"Fc1ccc(Nc2ncnc3c4c([se]c23)CCCC4)cc1Cl [Compound 27, (3-chloro-4-fluorophenyl)-6,7,8,9-tetrahydrobenzo[1,2-d]pyrimidino[5,6-b]selenophen-4-ylamine]",IC50,[1]; Homo sapiens,33.5 µM
same,IC50,[2]; Homo sapiens,11.4 µM
same,IC50,[3]; Homo sapiens,117 µM
"Fc1ccc(Nc2ncnc3[se]cc(-c4ccccc4)c23)cc1Cl [Compound 14, (3-chloro-4-fluorophenyl)(5-phenylselenopheno[3,2-e]pyrimidin-4-yl]amine]",IC50,[1]; Homo sapiens,121 µM
same,IC50,[2]; Homo sapiens,105 µM
"ethyl 4-[(3-chloro-4-fluorophenyl)amino]-5-methylthioselenopheno[3,4-d]pyrimidine-7-carboxylate [Compound 32]",Cell proliferation inhibition in A549 (Lung carcinoma),[1]; at 25 μM,26.1% at 25 μM
same,Cell proliferation inhibition in DU145 (Prostate carcinoma),[2]; at 25 μM,9.75% at 25 μM
same,Cell proliferation inhibition in HT29 (Colon carcinoma),[3]; at 25 μM,12.97% at 25 μM
